Experimental data reported in patent US20220062299A1, “USE OF GLUCOCORTICOID STEROIDS IN PREVENTING AND TREATING CONDITIONS OF MUSCLE WASTING, AGING AND METABOLIC DISORDER” (NORTHWESTERN UNIVERSITY, priority 2018, published 2022).

What was measured:
[1] = test system: Wildtype (WT) mice fed high-fat chow; experiment: Diet-induced obesity, wildtype mice on high-fat chow, 8 weeks; type: in vivo, mouse
Experimental: (§1) Glucose was measured in blood (first drop from tail venipuncture) or serum (5 μl of 1:2 dilution) with an AimStrip Plus glucometer system (Germaine Laboratories, San Antonio, Tex.) and expressed as mg/dl values. Lactate was measured in blood (second drop from tail venipuncture) or serum (5 μl of 1:2 dilution) with a Lactate Plus reader (Nova Biomedical, Waltham, Mass.) and expressed as mM values. Fasting glycemia was measured in mice after 4 hours fasting (7 AM-11 AM). Glucose, insulin and pyruvate tolerance tests were conducted after 4 hours fasting in individual cages immediately after baseline fasting glucose monitoring. Mice were injected with either 1 g/kg glucose (#D8375-1 g; Millipore Sigma, St Louis, Mo.), or 0.5 U/kg insulin (#12585014; Thermo Fisher, Waltham, Mass.), or 2.5 g/kg pyruvate (#P5280-25 g; Millipore Sigma, St Louis, Mo.) in 200 μl intraperitoneal injections, and glucose was then monitored by tail venipuncture at 10 min, 20 min, 30 min, 60 min, 120 min after injection. All glucose and pyruvate tolerance tests were conducted blinded to treatment groups.
MRI scan. Magnetic resonance imaging (MRI) scans to determine fat and lean mass ratios (% of total body weight) were conducted in non-anesthetized, non-fasted mice at 2 PM using the EchoMRI-100H Whole Body Composition analyzer (EchoMRI, Houston, Tex.). Mice were weighed immediately prior to MRI scan. Before each measurement session, system was calibrated using the standard internal calibrator tube (canola oil). Mice were typically scanned in sample tubes dedicated to mice comprised between 20 g and 40 g body mass. Data were collected through built-in software EchoMRI version 140320. Data were analyzed when hydration ratio >85%. MRI scans were conducted blinded to treatment groups.
Muscle function, whole-body plethysmography, echocardiography. Forelimb grip strength was monitored using a meter (Cat #1027SM; Columbus Instruments, Columbus, Ohio) blinded to treatment groups. Animals performed ten pulls with 5 seconds rest on a flat surface between pulls. Immediately before sacrifice, in situ tetanic force from tibialis anterior muscle was measured using a Whole Mouse Test System (Cat #1300A; Aurora Scientific, Aurora, ON, Canada) with a 1N dual-action lever arm force transducer (3000-LR, Aurora Scientific, Aurora, ON, Canada) in anesthetized animals (0.8 I/min of 1.5% isoflurane in 100% O2). Tetanic isometric contraction was induced with following specifications: initial delay, 0.1 sec; frequency, 200 Hz; pulse width, 0.5 msec; duration, 0.5 sec; using 100 mA stimulation (Quattrocelli et al., 2015). Length was adjusted to a fixed baseline of 50 mN resting tension for all muscles/conditions. Fatigue analysis was conducted by repeating tetanic contractions every 10 seconds until complete exhaustion of the muscle (50 cycles). Time of contraction was assessed as time to max tetanic value within the 0.0-0.5 sec range of each tetanic contraction, while time of relaxation was assessed as time to 90% min tetanic value within the 0.5-0.8 sec range of every tetanus. […] Data was recorded for a total of 15 minutes broken into 3 consecutive 5-minute periods. […] Cardiac function was assessed by echocardiography, which was conducted under anesthesia (0.8 L/min of 1.5% vaporized isoflurane in 100% O2) on mice between 2 and 5 days before sacrifice. […]

mdx mice = experiment: Glycemia monitoring, insulin sensitivity, glucose and pyruvate tolerance tests, adipocyte histology in mdx mice; type: in vivo, mouse
Experimental: as §1
Histology. Excised tissues (muscles, omental fat, heart) were placed in 10% formaldehyde (Cat #245-684; Fisher Scientific, Waltham, Mass.) for histologic processing. Seven μm sections from the center of paraffin-embedded muscles were stained with hematoxylin and eosin (H&E; cat #12013B, 1070C; Newcomer Supply, Middleton, Wis.) and Masson's trichrome (Cat #HT-15; Sigma-Aldrich; St. Louis, Mo.). Myofiber/adipocyte CSA quantitation was conducted on 400 myofibers/adipocytes per tissue per mouse. Imaging was performed using a Zeiss Axio Observer A1 microscope, using 10× and 20× (short-range) objectives. Brightfield pictures were acquired via Gryphax software (version 1.0.6.598; Jenoptik, Jena, Germany). Area quantitation was performed by means of ImageJ (Schneider et al., 2012). Sample processing, imaging and CSA quantitation were conducted blinded to treatment groups.

With `C[C@]12C=CC(=O)C=C1CC[C@@H]1[C@@H]2C(=O)C[C@@]2(C)[C@H]1CC[C@]2(O)C(=O)CO` [prednisone, Prednisone] the “gain of hyperglycemia (fasting blood glucose over time)” value ([1]; weekly prednisone) was “reduced”, the lean mass retention ([1]; weekly prednisone) was “improved” and the “gain of body weight and fat mass” value ([1]; weekly prednisone 1 mg/kg i.p., vs vehicle) was “slightly but significantly reduced”. For the same compound, the “body-wide glucose homeostasis (glucose and insulin tolerance tests)” value ([1]; weekly prednisone, endpoint) was “improved”, the “grip strength, tetanic force production and aerobic exercise capacity” value ([1]; weekly prednisone, endpoint) was “improved” and the adipocyte hypertrophy (mdx mice; daily prednisone) was “induced adipocyte hypertrophy”. The “endpoint glucose and pyruvate tolerance tests” value (mdx mice; daily prednisone) was “induced glucose intolerance and pyruvate intolerance”, the glucose homeostasis (mdx mice; daily prednisone) was “impaired” and the insulin resistance (mdx mice; daily prednisone) was “induced insulin resistance”. The Glycemia (mdx mice; daily prednisone, over treatment) was “progressively increased”, the “endpoint glucose tolerance test” value (mdx mice; weekly prednisone) was “did not increase glucose intolerance” and the insulin sensitivity (mdx mice; weekly prednisone) was “higher”.
